We go through 3 molecules from US8420686B2, “Linked diimidazole antivirals” (Enanta Pharmaceuticals, Inc., priority 2009, dated 2013).

As usually defined, the EC50 is the concentration needed to bring the measured effect to its halfway point.

The subject of the experiment is HCV 1b genotype replicon. In words: HCV genotype-1b replicon assay (qRT-PCR or luciferase). It counts as cell-based. The note with it: Hepatitis C virus; HCV 1b replicon cell lines (SGR 11-7 or Huh-luc/neo-ET); qRT-PCR or luciferase readout; read-out: Genotype-1b replicon EC50 Range. From the text:
HCV replicon cell lines (kindly provided by R. Bartenschlager) isolated from colonies as described by Lohman et al. (Lohman et al. (1999) Science 285: 110-113, expressly incorporated by reference in its entirety) and used for all experiments. The HCV replicon has the nucleic acid sequence set forth in EMBL Accession No.: AJ242651, the coding sequence of which is from nucleotides 1801 to 8406.
The coding sequence of the published HCV replicon was synthesized and subsequently assembled in a modified plasmid pBR322 (Promega, Madison, Wis.) using standard molecular biology techniques. One replicon cell line (“SGR 11-7”) stably expresses HCV replicon RNA which consists of (i) the HCV 5′UTR fused to the first 12 amino acids of the capsid protein, (ii) the neomycin phosphotransferase gene (neo), (iii) the IRES from encephalomyocarditis virus (EMCV), and (iv) HCV NS2 to NS5B genes and the HCV 3′UTR. […]
EC50 values of single agent compounds and combinations were determined by HCV RNA detection using quantitative RT-PCR, according to the manufacturer's instructions, with a TaqMan® One-Step RT-PCR Master Mix Reagents Kit (Cat#AB 4309169, Applied Biosystems) on an ABI Model 7500 thermocycler. The TaqMan primers used for detecting and quantifying HCV RNA were obtained from Integrated DNA Technologies. HCV RNA was normalized to GAPDH RNA levels in drug-treated cells, which is detected and quantified using the Human GAPDH Endogenous Control Mix (Applied Biosystems, AB 4310884E). […] Chemical agent cytotoxicity is evaluated using an MTS assay according to the manufacturer's directions (Promega). […]
Background: Replicon systems follow genome replication, usually without infectious particles.

The structures appear in SMILES notation.

On to `CN(C)C(C(=O)N1CCC[C@H]1c1ncc(-c2ccc3cc4cc(-c5cnc([C@@H]6CCCN6C(=O)[C@@H](c6ccccc6)N(C)C)[nH]5)ccc4cc3c2)[nH]1)c1ccccc1` (stereo partly drawn) [Example 1-b], for which the half-maximal effective concentration (EC50) was less than 1 nM.

As to `CN(C)[C@@H](C(=O)N1CCC[C@H]1c1ncc(-c2ccc(Oc3cccc(-c4cnc([C@@H]5CCCN5C(=O)[C@@H](c5ccccc5)N(C)C)[nH]4)c3)cc2)[nH]1)c1ccccc1` [Example 1-f], the EC50 was less than 1 nM.

As for `CN(C)[C@@H](C(=O)N1CCC[C@H]1c1ncc(-c2ccc3c(c2)Cc2cc(-c4cnc([C@@H]5CCCN5C(=O)[C@@H](c5ccccc5)N(C)C)[nH]4)ccc2-3)[nH]1)c1ccccc1` [Example 2], the EC50 was less than 1 nM.
